Converted amounts (≈) assume the structure as drawn.
Experiments:
[1] = system: rat stomach strip (fundus), contraction caused by PGE1; assay: rat stomach assay: PGE1 antagonism, inhibition of PGE1-induced contraction of rat stomach fundus muscle strips; format: cell-based; conditions: Tyrode solution pH 7.1, 37°, PGE1 at concentration causing about 25% of maximum response; for IC50: Rattus norvegicus, pH 7.1, rat stomach fundus strip, read-out: PGE1 Antagonist IC50
Description: J. Pharmacol. 12, 344 (1957)]. Male rats are decapitated and a strip is cut from the fundus of the stomach along the greater curvature. The strip (3 to 5 mm wide and 3 to 4 cm long) is suspended in Tyrode solution at pH 7.1 and 37° and gassed continuously with oxygen. Responses of the muscle are monitored isometrically by means of a strain gauge transducer. The above table lists for several compounds of this invention the concentration in μg/ml required to inhibit by 50% the contraction of muscle strips caused by a concentration of PG1 that normally causes about 25% of maximum responses ([…]). Some of the carboxamides were also run against higher concentration of PGE1 and gave greater IC50 values.

[2] = system: ethanol-induced gastric ulcer; assay: ethanol-induced gastric ulcer test in rats (gastric cytoprotection); format: in vivo, rat; conditions: for protection against ulcers: 2.0 mg/kg
Description: One of these compounds is the tert-butylcarboxamide 7 of Example 3. In a test designed to detect gastric cytoprotectin [Robert, U.S. Pat. No. 4,097,603], compound 7 inhibited ethanol-induced gastric ulcer to the extent of about 50 % when administered orally to rats at 2 mg/kg. Under similar conditions 0.5 mg/kg of PGE1 inhibited ulcer formation to the extent of 80%. […] At 2.0 mg/kg compound 14 of Example 7 gave about 18% protection and compound 16 of Example 8 gave about 27% protection against ulcers.

[3] = side effects after oral administration to rats; format: in vivo, rat
[4] = pKa measured in 1:1 ethanol/water; format: physicochemical; conditions: p-toluenesulfonate salt
Description: This iodamide was treated with pyrazolidinone 6 by a procedure analogous to that used for the synthesis of 10, Example 4b. The crude product 15, was obtained as an oil in 94% yield. A solution of 6.84 g of 15 in 3 ml of dry acetonitrile was added to a solution of 3.39 g of p-toluenesulfonic acid in 26 ml of dry acetonitrile, giving 5.12 g (66%) of salt 16, mp 123°-126°. Recrystallization from acetonitrile gave analytically pure salt 16, mp 129°-130.5°; Anal. calcd. for C28 H49 N3 SO6 : C, 60.51; H, 8.89; N, 7.56; found C, 60.50; H, 8.75; N, 7.89.

[5] = rats, oral, doses as high as 300 mg/kg

Which IC50 [1] does the source give for CCCCCC(O)CCN1C(=O)CCN1CCCCCCC(=O)NCC(C)(C)C (stereo not drawn) [Compound 10, N(2,2-Dimethylpropyl)7[3-oxo-2(3-hydroxy-n-octyl)-pyrazolidin-1-yl]heptanamide] here?
Its IC50 is 3 to 5 µg/mL (≈ 7.29 to 12.1 µM).

Which IC50 [1] does the source give for CCCCCC(O)CCN1C(=O)CCN1CCCCCCC(=O)NC(C)(C)C (stereo not drawn) [Compound 7, N(tert-Butyl)7[3-oxo-2-(3-hydroxy-n-octyl)pyrazolidin-1-yl]heptanamide] here?
Its IC50 is 33 µg/mL (≈ 83 µM).

And the “inhibition of ethanol-induced gastric ulcer” value ([2]; oral, 2 mg/kg)?
Its value is “about 50%”.

And the “overt prostaglandin-like side effects” value ([3]; rat, in vivo, po)?
The value was “no overt prostaglandin-like side effects”.

What about the diarrhea [3, 5] of the same molecule?
Its diarrhea is “no mortality or diarrhea”.

What about the mortality [3, 5] of the same molecule?
The mortality was “no mortality”.

For CCCCCC(O)CCN1CCC(=O)N1CCCCCCC(=O)NC(C)(C)CC (stereo not drawn) [Compound 5, N(tert-Amyl)7[3-oxo-1(3-hydroxy-n-octyl)pyrazolidin-2-yl]heptanamide], which IC50 [1] is on record?
The IC50 was 25 µg/mL (≈ 60.7 µM).

With CCCCCC(O)CCN1C(=O)CCN1CCCCCCC(=O)NC(C)(C)CC (stereo not drawn) [Compound 12, N(1,1-Dimethylpropyl)7-[3-oxo-2(3-hydroxy-n-octyl)pyrazolidin-1-yl]heptanamide] as the molecule, how does the IC50 [1] read?
The IC50 was 5 µg/mL (≈ 12.1 µM).

For CCCCCC(O)CCN1C(=O)CCN1CCCCCCC(=O)NC(C)(C)C (stereo not drawn) [Compound 9, N(tert-Butyl)7[3-oxo-2-(3-hydroxy-n-octyl)pyrazolidin-1-yl]heptanamide], which “PGE1 Antagonist IC50” value ([1]; rat stomach fundus strip) is on record?
Its value is 60 µg/mL.

Which IC50 [1] does the source give for CCCCCC(O)CCN1C(=O)CCN1CCCCCCC(=O)N(C(C)C)C(C)C (stereo not drawn) [Compound 13, N,N(Diisopropyl)7-[3-oxo-2(3-hydroxy-n-octyl)-pyrazolidin-1-yl]heptanamide] here?
The IC50 was 20 µg/mL (≈ 47 µM).

For CCCCCC(O)CCN1C(=O)CCN1CCCCCCC(=O)NC (stereo not drawn) [Compound 17, N-methyl-7[3-oxo-2(hydroxy-n-octyl)pyrazolidin-1-yl]heptanamide], which IC50 [1] is on record?
Its IC50 is 175 µg/mL (≈ 492 µM).

With CCCCCC(O)CCN1C(=O)CCN1CCCCCCC(=O)NC(C)C (stereo not drawn) [Compound 16, N(iso-Propyl)7[3-oxo-2(3-hydroxy-n-octyl)pyrazolidin-1-yl]heptanamide] as the molecule, how does the IC50 [1] read?
The IC50 was 75 µg/mL (≈ 196 µM).

And the protection against ulcers [2]?
Its protection against ulcers is “about 27%”.

And the pKa [4]?
The pKa was 3.25.

For CCCCC[C@H](O)/C=C/[C@H]1[C@H](O)CC(=O)[C@@H]1CCCCCCC(=O)O [PGE1, reference compound], which “inhibition of ulcer formation” value ([2]; similar conditions, 0.5 mg/kg) is on record?
Its value is 80%.

For CCCCCC(O)CCN1C(=O)CCN1CCCCCCC(=O)NC(C)(C)CC(C)(C)C (stereo not drawn) [Compound 14, N(1,1,3,3,-Tetramethyl-n-butyl)7[3-oxo-2(3-hydroxy-n-octyl)pyrazolidin-1-yl]heptanamide], which IC50 [1] is on record?
The IC50 was 2 µg/mL (≈ 4.41 µM).

What about the protection against ulcers [2] of the same molecule?
Its protection against ulcers is “about 18%”.

Which IC50 [1] does the source give for CCCCCC(O)CCN1CCC(=O)N1CCCCCCC(=O)NC(C)(C)C (stereo not drawn) [Compound 1, N-(tert-butyl)-7[3-oxo-1(3-hydroxy-n-octyl)pyrazolidin-2-yl]heptanamide] here?
Its IC50 is 60 µg/mL (≈ 151 µM).

Source: patent publication US4211876A, “3-Pyrazolidinone carboxamides” (E. I. Du Pont de Nemours and Company, priority 1979, dated 1980)
